Laboratory results reported in patent US10059699B2, “Tetrahydroquinoline derivatives as bromodomain inhibitors” (GlaxoSmithKline Intellectual Property (No.2) Limited, priority 2014, dated 2018).
Like-named read-outs stand apart in the source and are kept apart here. Marks after values point to notes of the source that are not given here.

How the values were obtained:
IL-6 = assay: LPS induced secretion of IL-6 from whole blood; format: cell-based; details: human whole blood, LPS 200 ng/mL, n=6; read-out: pIC50, LPS induced IL-6 secretion (converted)
Excerpt: Activation in whole blood of predominantly monocytic cells by agonists of toll-like receptors such as bacterial lipopolysaccharide (LPS) results in production of key inflammatory mediators, including IL-6. Such pathways are widely considered to be central to the pathophysiology of a range of auto-immune and inflammatory disorders.
Human Whole Blood from 2 donors (n=2) is collected using Sodium heparin as anti-coagulent (Wockhardt cat# FP1712) (10 units of heparin/mL of blood). Compounds were prepared as [10 mM] DMSO stocks and then diluted such that the top starting concentration was [1.4 mM] followed by 8×3-fold dilutions in DMSO. Final assay concentrations start at [10 μM] for all compounds. 1 μL diluted compound was added per well in a 96-well U bottom plate. 1 μL DMSO only was added to column 10 (+ve control) and 1-((2S,4R)-2-methyl-4-(phenylamino)-6-(4-(piperidin-1-ylmethyl)phenyl)-3,4-dihydroquinolin-1(2H)-yl)ethanone (for a preparation see Compound 28, J. Med. Chem. 2014, 57, 8111-8131, 1 μL, 1.4 mM) added to column 11 (−ve control). […] 150 μL of 2×MSD Read Buffer T (stock 4×MSD Read Buffer T was diluted 50:50 with de-ionised water) was then added to each well and the plates read on the MSD Sector Imager 6000. Concentration response curves for each compound were generated from the data using internal XC50 analysis and an IC50 value was calculated.

interleukin-6 (IL-6) = assay: LPS induced IL-6 production mouse assay; format: in vivo; details: male CD1 mice; for IL-6 Cmax: LPS iv 1 hour after dosing
Description: The compound was assayed for its ability to inhibit lipopolysaccharide (LPS) induced interleukin-6 (IL-6) production in mice. Male CD1 mice (Charles River Laboratories, 5 per group) received an intravenous challenge of LPS (100 μg/kg, L3192 E coli 0127:B8) 1 hour after oral administration of compound (in 1% (w/v) methylcellulose, aq 400). Serial blood samples were collected via teil vein up to 4 hours or via cardiac puncture at 6 hours (terminal sample) post oral drug administration and the serum harvested from the blood samples was frozen at −80° C. On the day of analysis, the serum was thawed to room temperature and levels of IL-6 were measured using single-spot cytokine assay plates (K152QXD) from Meso Scale Discovery (MSD, Gaithersburg, Md.). The levels of IL-6 were detected according to the manufacturer's protocol (MSD) and read on a SECTOR imager 6000 (MSD). The mean IL-6 Cmax and AUC0-t values were generated using WinNonlin Phoenix version 6.3 and the mean percent Cmax and AUC0-t IL-6 reduction following treatment with compound was calculated compared to the corresponding vehicle treated group. Levels of significance were calculated by analysis of variance (ANOVA) followed by Dunnett's multiple comparison t-test using Graphpad Prism version 5.04 (Graphpad Software, San Diego, Calif.). Statistical differences were determined as *P<0.05, **P<0.01.

[1] = system: NUT midline carcinoma cells (11060); assay: Cancer cell line proliferation assay, 11060; format: cell-based; details: 11060 cells, 72 hours, CellTiter Glo, n = 3
Description: (§1) The impact of the compound of Examples 7 and 14 on cancer cell proliferation was determined using patient derived NUT midline carcinoma cells (11060), multiple myeloma cells (OPM-2, DSMZ) and biphenotypic B myelomonocytic leukaemia cells (MV-4-11, ATCC) in a 72 hour proliferation assay. 11060 and OPM-2 cells were maintained in RPMI 1640 medium (Invitrogen) supplemented with 10% HI-FBS (Heat-Inactivated Fetal Bovine Serum, Hyclone) and 2 mM L-glutamine (Invitrogen) at 37° C. and an atmosphere of 5% CO2. MV-4-11 cells were maintained in IMDM media supplemented with 10% HI-FCS, 2 mM L-glutamine, 1× Non-essential amino acids (Invitrogen) and 1× sodium pyruvate (1 mM) (Invitrogen). Cells were diluted to 1.11×10^5 cells/mL and 90 μL/well plated into black sided, clear bottomed 96 well tissue culture plates (Corning), using growth media supplemented with penicillin/streptomycin (Invitrogen). Cells were incubated overnight at 37° C. and in one plate, ATP levels were measured using the CellTiter Glo assay (Promega) according to the manufacturer's instructions, to give a baseline reading (t=0). 3-fold serial dilutions of compounds ranging from 6 mM to 0.3 μM were prepared in 100% DMSO. The DMSO dilution series was diluted 20-fold in growth media before 10 μl of the resulting dilutions were added to the appropriate wells of the remaining cell plates. The final compound concentrations in the wells ranged from 30 μM to 1.5 nM in 0.5% DMSO. Cells were incubated with compounds for 72 hours before assaying for ATP content using CellTiter Glo (t=72). CellTiter Glo data from each t=72 time point was normalised to the relevant t=0 time point data, and expressed as % t=0.

[2] = system: biphenotypic B myelomonocytic leukaemia cells (MV-4-11); assay: Cancer cell line proliferation assay, MV-4-11; format: cell-based; details: Homo sapiens, MV4-11, MV-4-11 cells, 72 hours, CellTiter Glo, n = 3
Description: as §1

cytochrome P450 3A4 = cytochrome P450 3A4 (Homo sapiens, UniProt P08684); assay: Cytochrome P450 3A4 metabolism dependent inhibition; format: in vitro ADME
Chain of cytochrome P450 3A4 (P08684 whole entry): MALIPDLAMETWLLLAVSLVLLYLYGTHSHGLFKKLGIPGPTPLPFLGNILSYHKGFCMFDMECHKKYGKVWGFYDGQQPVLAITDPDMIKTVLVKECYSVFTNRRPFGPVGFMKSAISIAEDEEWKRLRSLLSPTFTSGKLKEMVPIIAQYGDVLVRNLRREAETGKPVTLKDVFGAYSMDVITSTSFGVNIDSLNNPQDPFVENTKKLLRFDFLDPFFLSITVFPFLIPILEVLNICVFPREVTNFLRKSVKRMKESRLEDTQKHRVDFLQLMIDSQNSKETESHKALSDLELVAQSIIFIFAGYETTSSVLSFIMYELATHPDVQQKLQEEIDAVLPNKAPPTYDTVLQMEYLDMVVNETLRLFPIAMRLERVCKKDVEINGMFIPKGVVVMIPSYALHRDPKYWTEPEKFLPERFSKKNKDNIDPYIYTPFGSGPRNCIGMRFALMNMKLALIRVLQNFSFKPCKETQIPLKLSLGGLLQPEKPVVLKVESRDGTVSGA

[3] = full curve fit, read-out: Cellular Proliferation: pIC50 (converted)
[4] = read-out: Cellular Proliferation: gpIC50 (converted)

CC(=O)N1c2ccc(C(N)=O)cc2[C@H](Nc2ncc(Cl)cn2)C[C@@H]1C [Example 14, (2S,4R)-1-acetyl-4-((5-chloropyrimidin-2-yl)amino)-2-methyl-1,2,3,4-tetrahydroquinoline-6-carboxamide]
IC50 (IL-6): 200 nM | % reduction in IL-6 AUC from vehicle (interleukin-6 (IL-6); 1 mg/kg oral): 49* % | % reduction in IL-6 Cmax from vehicle (interleukin-6 (IL-6); 1 mg/kg oral): 58% | IL-6 AUC0-t (interleukin-6 (IL-6); 1 mg/kg oral): 554 ng·h/mL | IL-6 Cmax (interleukin-6 (IL-6); 1 mg/kg oral): 291 ng/mL | % reduction in IL-6 AUC from vehicle (interleukin-6 (IL-6); 3 mg/kg oral): 55** % | % reduction in IL-6 Cmax from vehicle (interleukin-6 (IL-6); 3 mg/kg oral): 48% | IL-6 AUC0-t (interleukin-6 (IL-6); 3 mg/kg oral): 495 ng·h/mL | IL-6 Cmax (interleukin-6 (IL-6); 3 mg/kg oral): 357 ng/mL | % reduction in IL-6 AUC from vehicle (interleukin-6 (IL-6); 10 mg/kg oral): 48* % | % reduction in IL-6 Cmax from vehicle (interleukin-6 (IL-6); 10 mg/kg oral): 62* % | IL-6 AUC0-t (interleukin-6 (IL-6); 10 mg/kg oral): 563 ng·h/mL | IL-6 Cmax (interleukin-6 (IL-6); 10 mg/kg oral): 258 ng/mL | IC50 [1, 3]: 1000 nM | IC50 [1, 4]: 631 nM | IC50 [2, 3]: 316 nM | IC50 [2, 4]: 251 nM | cytochrome P450 3A4 metabolism dependent inhibition (cytochrome P450 3A4): no cytochrome P450 3A4 metabolism dependent inhibition
